target: human F508del CFTR (Homo sapiens (Human), UniProt P13569, DEL508-508); assay: CFTR-YFP High Throughput Assay (YFP halide flux, FRT cells); assay type: cell-based; conditions: EMax normalized to the positive control; FRT cells expressing human F508del CFTR and YFP; read-out: % Efficacy
Method: Assays for Detecting and Measuring the Effect of Compounds on F508del-CFTR Channels CFTR-YFP Assay-CFTR Corrector Protocol:
This protocol is designed to selectively screen small molecule compounds for F508del CFTR corrector activities in the YFP (yellow fluorescent protein) flux assay. In this protocol, the cells are incubated with testing compounds for 24 hours, washed with PBS, stimulated with forskolin and a standard potentiator, and fluorescence in each plate well is measured kinetically read on a 384-well plate reader, such as the Hamamatsu FDSS-6000.
YFP fluorescence intensity values are acquired at high speed before and after iodide buffer is injected to the assay cells. Iodide enters the cells via active CFTR channels in the plasma membrane, and quenches the YFP fluorescence. The rate of fluorescence quenching is proportionate to the total CFTR activity in the cell membrane. F508del CFTR correctors increase the number of CFTR molecules in the testing cell plasma membrane, and thereby accelerate YFP quenching.
This method was initially developed for bench top plate readers (Galietta, J, Jayaraman, S and Verkman, A S. Cell-based assay for high-throughput quantitative screening of CFTR chloride transport agonists. Am. J. Physiol. Cell Physiol. (2001), 281: C173), and was adapted to the HTS format (Sui J, Cotard S, Andersen J, Zhu P, Staunton J, Lee M, Lin S. Optimization of a Yellow fluorescent protein-based iodide influx high-throughput screening assay for cystic fibrosis transmembrane conductance regulator (CFTR) modulators. Assay Drug Dev Technol. (2010), 8: 656-668).
Fisher Rat Thyroid (FRT) cells stably expressing both human F508del CFTR and a halide-sensitive yellow fluorescent protein (YFP-H148Q/I152L 25,22) (Galietta et al. Am. J. Physiol Cell Physiol 281(5), C1734, 2001) were cultured on plastic surface in Coon's modified Ham's F12 medium supplemented with FBS 10%, L-glutamine 2 mM, penicillin 100 U/ml, and streptomycin 100 μg/ml. G418 (0.75-1.0 mg/ml) and zeocin (3.2 ug/ml) were used for selection of FRT cells expressing F508del CFTR and YFP. For primary screening, FRT cells were plated into 384-well black wall, transparent bottom microtiter plates (Costar; Corning Inc.) at a cell density of 20,000-40,000 per well. Test compound was applied to the cells at varying concentrations ranging from 2 nM-40 μM in either a 2-fold or 3-fold dilution series. Cells were incubated in a cell culture incubator at 37° C. with 5% CO2 for 24-26 h. Assay plates were washed with DPBS media (Thermo, cat # SH30028.02) to remove unbound cells and compound. Stimulation media (25 μL) containing 20 μM Forskolin & 30 μM P3 [6-(Ethyl-phenyl-sulfonyl)-4-oxo-1,4-dihydro-quinoline-3-carboxylic acid 2-methoxy-benzylamide] in Hams F-12 coon's modified media was added to the plate wells and incubated at room temperature for 60-120 min. 25 μL of HEPES-PBS-I buffer (10 mM HEPES, 1 mM MgCl2, 3 mM KCl, 1 mM CaCl2, 150 mM NaI) was then added and fluorescence quench curves (Excitation 500 nm/Emission 540 nm; exposure 136 ms) were immediately recorded on an FDSS-6000 plate reader (Hamamatsu). Quench rates were derived from least squares fitting of the data as described by Sui et al (2010).
CFTR-YFP Assay-CFTR Potentiator Protocol:
This protocol is designed to selectively screen small molecule compounds for F508del CFTR potentiator activities in the YFP (yellow fluorescent protein) flux assay. Such compounds act acutely to stimulate CFTR already expressed on the membrane surface. In this protocol, the cells are incubated at 27° C. for 24 hours to homogeneously boost F508del CFTR expression in the cell membrane (low temperature correction), washed with PBS, treated with test compound, and CFTR activity is stimulated with forskolin for 1-2 hr. Measurement of ion flux is initiated by addition of iodide-containing buffer, and YFP quenching is kinetically recorded using a 384-well plate reader, such as the Hamamatsu FDSS-6000. […]

Sequence of human F508del CFTR (P13569 other isoform, or with tags, fused parts or gaps del F508-F508): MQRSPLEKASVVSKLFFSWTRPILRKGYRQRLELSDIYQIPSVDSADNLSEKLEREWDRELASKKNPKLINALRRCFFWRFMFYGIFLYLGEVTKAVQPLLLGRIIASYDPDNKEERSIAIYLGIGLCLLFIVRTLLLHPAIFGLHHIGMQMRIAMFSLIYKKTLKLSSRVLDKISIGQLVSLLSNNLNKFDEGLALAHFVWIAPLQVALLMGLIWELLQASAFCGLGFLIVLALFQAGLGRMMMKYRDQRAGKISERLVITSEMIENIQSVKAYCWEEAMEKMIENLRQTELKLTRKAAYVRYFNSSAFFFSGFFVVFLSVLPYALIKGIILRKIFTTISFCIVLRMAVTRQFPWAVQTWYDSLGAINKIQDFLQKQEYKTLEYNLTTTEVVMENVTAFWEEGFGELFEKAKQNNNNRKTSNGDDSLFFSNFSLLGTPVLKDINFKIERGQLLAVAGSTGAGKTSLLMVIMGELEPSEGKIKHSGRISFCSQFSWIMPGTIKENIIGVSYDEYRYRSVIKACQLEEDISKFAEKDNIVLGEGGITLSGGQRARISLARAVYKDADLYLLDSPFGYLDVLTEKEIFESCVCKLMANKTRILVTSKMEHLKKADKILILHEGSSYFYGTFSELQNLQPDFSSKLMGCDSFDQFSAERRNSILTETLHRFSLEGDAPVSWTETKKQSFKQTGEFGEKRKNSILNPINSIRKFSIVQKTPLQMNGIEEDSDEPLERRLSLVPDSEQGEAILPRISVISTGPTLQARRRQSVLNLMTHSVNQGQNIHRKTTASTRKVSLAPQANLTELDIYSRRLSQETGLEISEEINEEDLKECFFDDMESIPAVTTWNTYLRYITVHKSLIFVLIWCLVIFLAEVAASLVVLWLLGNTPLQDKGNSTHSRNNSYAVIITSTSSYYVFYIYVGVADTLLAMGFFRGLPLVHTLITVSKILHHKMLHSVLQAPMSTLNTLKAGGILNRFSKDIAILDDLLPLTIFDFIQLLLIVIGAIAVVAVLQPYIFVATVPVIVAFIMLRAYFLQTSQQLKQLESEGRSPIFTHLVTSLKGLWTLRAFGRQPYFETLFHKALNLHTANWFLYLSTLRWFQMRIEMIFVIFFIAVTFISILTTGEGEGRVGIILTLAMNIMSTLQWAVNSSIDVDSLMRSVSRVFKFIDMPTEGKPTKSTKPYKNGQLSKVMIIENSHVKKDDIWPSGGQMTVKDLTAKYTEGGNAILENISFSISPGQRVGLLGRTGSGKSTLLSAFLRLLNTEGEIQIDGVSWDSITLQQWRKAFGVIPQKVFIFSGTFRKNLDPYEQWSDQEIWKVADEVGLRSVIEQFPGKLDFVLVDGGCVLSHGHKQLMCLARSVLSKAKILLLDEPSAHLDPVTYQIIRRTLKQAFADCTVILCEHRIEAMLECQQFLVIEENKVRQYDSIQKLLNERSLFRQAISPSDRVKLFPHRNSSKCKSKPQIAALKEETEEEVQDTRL

Row | SMILES | Emax [%]
1 | Cc1nc2ccc(N(C)C(=O)Cn3nc(-c4cccc(Cl)c4)c4ccccc4c3=O)cc2o1 [Example 1, 2-(4-(3-chlorophenyl)-1-oxophthalazin-2(1H)-yl)-N-methyl-N-(2-methylbenzo[d]oxazol-6-yl)acetamide] | > 80
2 | Cc1nc2ccc(N(C)C(=O)Cn3nc(-c4cccc(F)c4)c4ccccc4c3=O)cc2o1 [Example 2, 2-(4-(3-fluorophenyl)-1-oxophthalazin-2(1H)-yl)-N-methyl-N-(2-methylbenzo[d]oxazol-6-yl)acetamide] | 30 to 80
3 | COc1ccc2c(-c3cccc(F)c3)nn(CC(=O)N(C)c3ccc4nc(C)oc4c3)c(=O)c2c1 [Example 3, 2-(4-(3-fluorophenyl)-7-methoxy-1-oxophthalazin-2(1H)-yl)-N-methyl-N-(2-methylbenzo[d]oxazol-6-yl)acetamide] | 30 to 80
4 | COc1ccc2c(-c3cccc(Cl)c3)nn(CC(=O)N(C)c3ccc4nc(C)oc4c3)c(=O)c2c1 [Example 4, 2-(4-(3-chlorophenyl)-7-methoxy-1-oxophthalazin-2(1H)-yl)-N-methyl-N-(2-methylbenzo[d]oxazol-6-yl)acetamide] | > 80
5 | COc1ccc2c(-c3cccc(Cl)c3)nn(CC(=O)N(c3ccc4nc(C)oc4c3)C3CC3)c(=O)c2c1 [Example 5, 2-(4-(3-chlorophenyl)-7-methoxy-1-oxophthalazin-2(1H)-yl)-N-cyclopropyl-N-(2-methylbenzo[d]oxazol-6-yl)acetamide] | > 80
6 | [2H]C([2H])([2H])N(C(=O)Cn1nc(-c2cccc(Cl)c2)c2ccc(OC)cc2c1=O)c1ccc2nc(C)oc2c1 [Example 6, 2-(4-(3-chlorophenyl)-7-methoxy-1-oxophthalazin-2(1H)-yl)-N-(methyl-d3)-N-(2-methylbenzo[d]oxazol-6-yl)acetamide] | > 80
7 | [2H]C([2H])(C)N(C(=O)Cn1nc(-c2cccc(Cl)c2)c2ccc(OC)cc2c1=O)c1ccc2nc(C)oc2c1 [Example 7, 2-(4-(3-chlorophenyl)-7-methoxy-1-oxophthalazin-2(1H)-yl)-N-(ethyl-1,1-d2)-N-(2-methylbenzo[d]oxazol-6-yl)acetamide] | > 80
8 | CCN(C(=O)Cn1nc(-c2cccc(F)c2)c2ccc(OC)cc2c1=O)c1ccc2nc(C)oc2c1 [Example 8, N-ethyl-2-(4-(3-fluorophenyl)-7-methoxy-1-oxophthalazin-2(1H)-yl)-N-(2-methylbenzo[d]oxazol-6-yl)acetamide] | > 80
9 | CCN(C(=O)Cn1nc(-c2cccc(Cl)c2)c2ccc(OC)cc2c1=O)c1ccc2nc(C)oc2c1 [Example 9, 2-(4-(3-chlorophenyl)-7-methoxy-1-oxophthalazin-2(1H)-yl)-N-ethyl-N-(2-methylbenzoyl[d]oxazol-6-yl)acetamide] | > 80
10 | COc1cc2c(=O)n(CC(=O)N(C)c3ccc4nc(C)oc4c3)nc(-c3cccc(F)c3)c2cc1Cl [Example 10, 2-(6-chloro-4-(3-fluorophenyl)-7-methoxy-1-oxophthalazin-2(1H)-yl)-N-methyl-N-(2-methylbenzo[d]oxazol-6-yl)acetamide] | 30 to 80
11 | COc1cc2c(=O)n(CC(=O)N(C)c3ccc4nc(C)oc4c3)nc(-c3cccc(Cl)c3)c2cc1Cl [Example 11, 2-(6-chloro-4-(3-chlorophenyl)-7-methoxy-1-oxophthalazin-2(1H)-yl)-N-methyl-(2-methylbenzo[d]oxazol-6-yl)acetamide] | > 80
12 | COc1ccc2c(-c3cccc(F)c3)nn(CC(=O)N(c3ccc4nc(C)oc4c3)C3CC3)c(=O)c2c1 [Example 12, N-cyclopropyl-2-(4-(3-fluorophenyl)-7-methoxy-1-oxophthalazin-2(1H)-yl)-N-(2-methylbenzo[d]oxazol-6-yl)acetamide] | > 80
13 | Cc1nc2ccc(N(C)C(=O)Cn3nc(-c4cccc(F)c4)c4ccc(O)cc4c3=O)cc2o1 [Example 13, 2-(4-(3-fluorophenyl)-7-hydroxy-1-oxophthalazin-2(1H)-yl)-N-methyl-N-(2-methylbenzo[d]oxazol-6-yl)acetamide] | > 80
14 | Cc1nc2ccc(N(C(=O)Cn3nc(-c4cccc(F)c4)c4ccc(O)cc4c3=O)C3CC3)cc2o1 [Example 14, N-cyclopropyl-2-(4-(3-fluorophenyl)-7-hydroxy-1-oxophthalazin-2(1H)-yl)-N-(2-methylbenzo[d]oxazol-6-yl)acetamide] | 30 to 80
15 | Cc1nc2ccc(N(C(=O)Cn3nc(-c4cccc(Cl)c4)c4ccc(O)cc4c3=O)C3CC3)cc2o1 [Example 15, 2-(4-(3-chlorophenyl)-7-hydroxy-1-oxophthalazin-2(1H)-yl)-N-cyclopropyl-N-(2-methylbenzo[d]oxazol-6-yl)acetamide] | > 80
16 | Cc1nc2ccc(N(C)C(=O)Cn3nc(-c4cccc(Cl)c4)c4ccc(O)cc4c3=O)cc2o1 [Example 16, 2-(4-(3-chlorophenyl)-7-hydroxy-1-oxophthalazin-2(1H)-yl)-N-methyl-N-(2-methylbenzo[d]oxazol-6-yl)acetamide] | > 80
17 | CCOc1ccc2c(-c3cccc(F)c3)nn(CC(=O)N(C)c3ccc4nc(C)oc4c3)c(=O)c2c1 [Example 17, 2-(7-ethoxy-4-(3-fluorophenyl)-1-oxophthalazin-2(1H)-yl)-N-methyl-N-(2-methylbenzo[d]oxazol-6-yl)acetamide] | > 80
18 | CCOc1ccc2c(-c3cccc(Cl)c3)nn(CC(=O)N(c3ccc4nc(C)oc4c3)C3CC3)c(=O)c2c1 [Example 18, 2-(4-(3-chlorophenyl)-7-ethoxy-1-oxophthalazin-2(1H)-yl)-N-cyclopropyl-N-(2-methylbenzo[d]oxazol-6-yl)acetamide] | > 80
19 | CCOc1ccc2c(-c3cccc(Cl)c3)nn(CC(=O)N(C)c3ccc4nc(C)oc4c3)c(=O)c2c1 [Example 19, 2-(4-(3-chlorophenyl)-7-ethoxy-1-oxophthalazin-2(1H)-yl)-N-methyl-N-(2-methylbenzo[d]oxazol-6-yl)acetamide] | > 80
20 | [2H]C([2H])([2H])N(C(=O)Cn1nc(-c2cccc(Cl)c2)c2ccc(OC(C)C)cc2c1=O)c1ccc2nc(C)oc2c1 [Example 20, 2-(4-(3-chlorophenyl)-7-isopropoxy-1-oxophthalazin-2(1H)-yl)-N-(methyl-d3)-N-(2-methylbenzo[d]oxazol-6-yl)acetamide] | 30 to 80
21 | CCOc1ccc2c(-c3cccc(F)c3)nn(CC(=O)N(c3ccc4nc(C)oc4c3)C3CC3)c(=O)c2c1 [Example 21, N-cyclopropyl-2-(7-ethoxy-4-(3-fluorophenyl)-1-oxophthalazin-2(1H)-yl)-N-(2-methylbenzo[d]oxazol-6-yl)acetamide] | > 80
22 | [2H]C([2H])([2H])N(C(=O)Cn1nc(-c2cccc(F)c2)c2ccc(OCC)cc2c1=O)c1ccc2nc(C)oc2c1 [Example 22, 2-(7-ethoxy-4-(3-fluorophenyl)-1-oxophthalazin-2(1H)-yl)-N-(methyl-d3)-N-(2-methylbenzo[d]oxazol-6-yl)acetamide] | > 80
23 | [2H]C([2H])([2H])N(C(=O)Cn1nc(-c2cccc(Cl)c2)c2ccc(OCC3CC3)cc2c1=O)c1ccc2nc(C)oc2c1 [Example 23, 2-(4-(3-chlorophenyl)-7-(cyclopropylmethoxy)-1-oxophthalazin-2(1H)-yl)-N-(methyl-d3)-N-(2-methylbenzo[d]oxazol-6-yl)acetamide] | 30 to 80
24 | Cc1nc2ccc(N(C)C(=O)Cn3nc(-c4cccc(Cl)c4)c4ccc(OCC5CC5)cc4c3=O)cc2o1 [Example 24, 2-(4-(3-chlorophenyl)-7-(cyclopropylmethoxy)-1-oxophthalazin-2(1H)-yl)-N-methyl-N-(2-methylbenzo[d]oxazol-6-yl)acetamide] | > 80

Source: patent US10280160B2, “Phthalazinone compounds and methods for the treatment of cystic fibrosis” (FLATLEY DISCOVERY LAB, LLC, priority 2013, dated 2019)
